Results taken from patent EP2931723B1, “NEW BICYCLIC COMPOUNDS AND THEIR USE AS ANTIBACTERIAL AGENTS AND -LACTAMASE INHIBITORS” (Fedora Pharmaceuticals Inc., priority 2012, dated 2014).

Columns and labels:
Assay in all cases: MIC, antibacterial and synergistic activity
Format in all cases: cell-based
K. pneumo JMI 2673 [1] = conditions: K. pneumo JMI 2673 (CTX-M14 (ESBL)); for MIC Aztreonam + inhibitor: Aztreonam + inhibitor at 4 µg/mL; for MIC Ceftazidime + inhibitor: Ceftazidime + inhibitor at 4 µg/mL; for MIC Meropenem + inhibitor: Meropenem + inhibitor at 4 µg/mL
Summary of the method: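 Compounds were evaluated together with various antibiotics to measure synergistic antibacterial activity. For each combination, the minimum inhibitory concentration of the antibiotic was recorded while the inhibitor was present at a constant 4 µg/mL.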

K. pneumo JMI 4088 = K. pneumo JMI 4088 (KPC-3 (Cpase)); for MIC Aztreonam + inhibitor: Aztreonam + inhibitor at 4 µg/mL; for MIC Ceftazidime + inhibitor: Ceftazidime + inhibitor at 4 µg/mL; for MIC Meropenem + inhibitor: Meropenem + inhibitor at 4 µg/mL
Summary of the method: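 Minimum inhibitory concentrations were measured for antibiotics given together with the test inhibitor, held at 4 µg/mL, against bacteria that produce β-lactamase. The purpose was to see whether the inhibitor restores or boosts antibacterial activity, that is, synergy with the antibiotic.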

K. pneumo JMI 2674 = K. pneumo JMI 2674 (CTX-M15 (ESBL)); for MIC Aztreonam + inhibitor: Aztreonam + inhibitor at 4 µg/mL; for MIC Ceftazidime + inhibitor: Ceftazidime + inhibitor at 4 µg/mL; for MIC Meropenem + inhibitor: Meropenem + inhibitor at 4 µg/mL
Summary of the method: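 Antibacterial activity was assessed as minimum inhibitory concentrations against a β-lactamase-producing bacterial strain. Each test inhibitor was combined with an antibiotic, with the inhibitor held at a fixed 4 µg/mL, to determine whether it acted synergistically and restored the antibiotic's effect against the resistant organism.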

P. aerug JMI 2686 = P. aerug JMI 2686 (KPC-2 (Cpase)); for MIC Aztreonam + inhibitor: Aztreonam + inhibitor at 4 µg/mL; for MIC Ceftazidime + inhibitor: Ceftazidime + inhibitor at 4 µg/mL; for MIC Meropenem + inhibitor: Meropenem + inhibitor at 4 µg/mL
Summary of the method: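 This antibacterial synergy assay measured the minimum inhibitory concentration of antibiotics combined with the disclosed inhibitor compounds. The inhibitor was held at 4 µg/mL throughout. The aim was to see whether the added compound strengthened the antibiotic's action against the tested bacteria.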

K. pneumo JMI 2673 [2] = conditions: K. pneumo JMI 2673 (CTX-M14 (ESBL)); substance alone
A. baumanii JMI 2659 = A. baumanii JMI 2659 (Ges-14 (Cpase)); for MIC Aztreonam + inhibitor: Aztreonam + inhibitor at 4 µg/mL; for MIC Ceftazidime + inhibitor: Ceftazidime + inhibitor at 4 µg/mL; for MIC Meropenem + inhibitor: Meropenem + inhibitor at 4 µg/mL; for MIC: Acinetobacter baumannii, JMI2659, substance alone, read-out: MIC
E. coli JMI 10770 = conditions: Escherichia coli, JMI10770; E. coli JMI 10770 (CTX-M15 (Hyper ESBL)); substance alone
E. cloacae JMI 36 = E. cloacae JMI 36 (P99); for MIC Aztreonam + inhibitor: Aztreonam + inhibitor at 4 µg/mL; for MIC Ceftazidime + inhibitor: Ceftazidime + inhibitor at 4 µg/mL; for MIC Meropenem + inhibitor: Meropenem + inhibitor at 4 µg/mL; for MIC: Enterobacter cloacae, JMI36, substance alone, read-out: MIC
K.pneumo JMI 4109 = K.pneumo JMI 4109 (SHV-1, SHV-12); substance alone

SMILES	MIC Aztreonam + inhibitor (K. pneumo JMI 2673 [1])	MIC Ceftazidime + inhibitor (K. pneumo JMI 2673 [1]) [µg/mL]	MIC Meropenem + inhibitor (K. pneumo JMI 2673 [1])	MIC Aztreonam + inhibitor (K. pneumo JMI 4088)	MIC Ceftazidime + inhibitor (K. pneumo JMI 4088) [µg/mL]	MIC Meropenem + inhibitor (K. pneumo JMI 4088) [µg/mL]	MIC Aztreonam + inhibitor (K. pneumo JMI 2674)	MIC Ceftazidime + inhibitor (K. pneumo JMI 2674) [µg/mL]	MIC Meropenem + inhibitor (K. pneumo JMI 2674) [µg/mL]	MIC Aztreonam + inhibitor (P. aerug JMI 2686) [µg/mL]	MIC Ceftazidime + inhibitor (P. aerug JMI 2686) [µg/mL]	MIC Meropenem + inhibitor (P. aerug JMI 2686) [µg/mL]	MIC (K. pneumo JMI 2673 [2]) [µg/mL]	MIC Aztreonam + inhibitor (A. baumanii JMI 2659) [µg/mL]	MIC Ceftazidime + inhibitor (A. baumanii JMI 2659) [µg/mL]	MIC Meropenem + inhibitor (A. baumanii JMI 2659) [µg/mL]	MIC (A. baumanii JMI 2659) [µg/mL]	MIC (E. coli JMI 10770) [µg/mL]	MIC Aztreonam + inhibitor (E. cloacae JMI 36) [µg/mL]	MIC Ceftazidime + inhibitor (E. cloacae JMI 36) [µg/mL]	also measured
O=C(NNC(=O)[C@H]1CC[C@H]2CN1C(=O)N2OS(=O)(=O)O)C1CNC1 (stereo in doubt) [Ex. 9, (2R,5S)-N'-(azetidin-3-ylcarbonyl)-7-oxo-6-(sulfooxy)-1,6-diazabicyclo[3.2.1]octane-2-carbohydrazide]	≤0.06 µg/mL	≤0.25	≤0.03 µg/mL	0.5 µg/mL	≤0.25	0.06	0.125 µg/mL	≤0.25	0.06	>4	>16	>2	> 16	>4	16	2	> 16	> 16	0.25	≤0.25	MIC Meropenem + inhibitor (E. cloacae JMI 36): 0.06 µg/mL; MIC (E. cloacae JMI 36): > 16 µg/mL; MIC (K.pneumo JMI 4109): 4 µg/mL
CCC(=O)NNC(=O)[C@@H]1CC[C@@H]2CN1C(=O)N2OS(=O)(=O)O [Ex. 8, (2S,5R)-7-oxo-N'-propanoyl-6-(sulfooxy)-1,6-diazabicyclo[3.2.1]octane-2-carbohydrazide]	≤0.062 µg/mL	≤0.25	≤0.0312 µg/mL	0.125 µg/mL	0.5	0.5	≤0.062 µg/mL	≤0.25	0.062	>4	>16	>2	> 16	>4	>16	>2	> 16	> 16	0.125	0.5	MIC Meropenem + inhibitor (E. cloacae JMI 36): 0.25 µg/mL; MIC (E. cloacae JMI 36): > 16 µg/mL; MIC (K.pneumo JMI 4109): 4 µg/mL
O=C(NO[C@H]1CCCNC1)[C@@H]1CC[C@@H]2CN1C(=O)N2OS(=O)(=O)O [Ex. 2, (2S,5R)-7-Oxo-N-[(3S)-piperidin-3-yloxy] -6-(sulfooxy)-1,6-diazabicyclo[3.2.1]octane-2-carboxamide]	≤.062 µg/mL	≤0.25	≤.031 µg/mL	0.5 µg/mL	≤0.25	0.062	0.125 µg/mL	≤0.25	0.125	>4	16	>2	> 16	>4	>16	>2	> 16	4	0.125	≤0.25	MIC Meropenem + inhibitor (E. cloacae JMI 36): 0.125 µg/mL; MIC (E. cloacae JMI 36): > 16 µg/mL; MIC (K.pneumo JMI 4109): 16 µg/mL
NCCONC(=O)[C@@H]1CC[C@@H]2CN1C(=O)N2OS(=O)(=O)O [Ex. 3, (2S,5R)-N-(2-Aminoethoxy)-7-oxo-6-(sulfooxy)-1,6-diazabicyclo[3.2.1]octane-2-carboxamide]	0.125 µg/mL	≤0.25	≤0.0312 µg/mL	1 µg/mL	≤0.25	0.25	0.5 µg/mL	≤0.25	0.125	>4	16	>2	> 16	>4	>16	2	> 16	> 16	>4	0.5	MIC Meropenem + inhibitor (E. cloacae JMI 36): 0.062 µg/mL; MIC (E. cloacae JMI 36): > 16 µg/mL; MIC (K.pneumo JMI 4109): 2 µg/mL
O=C(NO[C@H]1CCNC1)[C@@H]1CC[C@@H]2CN1C(=O)N2OS(=O)(=O)O [Ex. 1, (2S,5R)-7-Oxo-N-[(3S)-pyrrolidin-3-yloxy]-6-(sulfooxy)-1,6-diazabicyclo[3.2.1]octane-2-carboxamide]	≤.062 µg/mL	≤0.25	≤.031 µg/mL	≤.062 µg/mL	≤0.25	0.062	≤.062 µg/mL	≤0.25	0.062	>4	16	>2	> 16	>4	>16	2	> 16	8	0.25	1	MIC Meropenem + inhibitor (E. cloacae JMI 36): 0.062 µg/mL; MIC (E. cloacae JMI 36): > 16 µg/mL; MIC (K.pneumo JMI 4109): 4 µg/mL
O=C(NNC(=O)[C@H]1CC[C@H]2CN1C(=O)N2OS(=O)(=O)O)C1CC1 (stereo in doubt) [Ex. 7, (2R,5S)-N'-(cyclopropylcarbonyl)-7-oxo-6-(sulfooxy)-1,6-diazabicyclo[3.2.1]octane-2-carbohydrazide]	≤0.062 µg/mL	≤0.25	≤0.0312 µg/mL	0.125 µg/mL	1	1	≤0.062 µg/mL	≤0.25	0.125	>4	>16	>2	> 16	>4	>16	>2	> 16	8	0.125	0.5	MIC Meropenem + inhibitor (E. cloacae JMI 36): 0.125 µg/mL; MIC (E. cloacae JMI 36): > 16 µg/mL; MIC (K.pneumo JMI 4109): 2 µg/mL
